# Data reported in ChEMBL document CHEMBL5104093, “A comprehensive review on β-lapachone: Mechanisms, structural modifications, and therapeutic potentials” (Eur J Med Chem, 2021).
# Tests used:
# [1] = test system: Mycobacterium tuberculosis; assay: Antimycobacterial activity against Mycobacterium tuberculosis H37Rv ATCC 27294 assessed as bacterial growth inhibition incubated for 7 days by resazurin dye based microtiter assay; type: functional; conditions: ATCC 27294, 168 h, time 7 day
# Trypanosoma cruzi [2] = assay: Antitrypanosomal activity against bloodstream form of Trypanosoma cruzi Y trypomastigotes infected in albino mouse assessed as reduction in viable parasite in blood incubated for 24 hrs by Neubauer counting chamber method; type: functional, organism-based
# HL-60 [3] = assay: Cytotoxicity against human HL-60 cells assessed as reduction in cell viability incubated for 72 hrs by MTT assay; type: functional, cell-based; conditions: HL-60, 72 h
# Jurkat = assay: Cytotoxicity against human Jurkat cells assessed as reduction in cell viability incubated for 72 hrs by MTT assay; type: functional, cell-based
# MOLT-4 = assay: Cytotoxicity against human MOLT-4 cells assessed as reduction in cell viability incubated for 72 hrs by MTT assay; type: functional, cell-based; conditions: MOLT-4, 72 h
# K562 = assay: Cytotoxicity against human K562 cells assessed as reduction in cell viability incubated for 72 hrs by MTT assay; type: functional, cell-based; conditions: K562, 72 h
# Trypanosoma cruzi [4] = assay: Antitrypanosomal activity against bloodstream form of Trypanosoma cruzi trypomastigotes infected in Swiss mouse assessed as reduction in viable parasite in blood incubated for 24 hrs by Neubauer counting chamber method; type: functional, organism-based
# HepG2 = assay: Cytotoxicity against human HepG2 cells assessed as reduction in cell viability incubated for 48 hrs by MTT assay; type: functional, cell-based; conditions: HepG2, 48 h
# PC-3 = assay: Cytotoxicity against human PC-3 cells assessed as reduction in cell viability incubated for 72 hrs by MTT assay; type: functional, cell-based; conditions: PC-3, 72 h
# SF-295 [5] = assay: Cytotoxicity against human SF-295 cells assessed as reduction in cell viability incubated for 72 hrs by MTT assay; type: functional, cell-based; conditions: SF-295, 72 h
# MDA-MB-435 = assay: Cytotoxicity against human MDA-MB-435 cells assessed as reduction in cell viability incubated for 72 hrs by MTT assay; type: functional, cell-based; conditions: MDA-MB-435, 72 h
# HCT-8 = assay: Cytotoxicity against human HCT-8 cells assessed as reduction in cell viability incubated for 72 hrs by MTT assay; type: functional, cell-based; conditions: HCT-8, 72 h
# B16 = assay: Cytotoxicity against mouse B16 cells assessed as reduction in cell viability incubated for 72 hrs by MTT assay; type: functional, cell-based; conditions: B16, 72 h
# Staphylococcus aureus = assay: Antibacterial activity against Staphylococcus aureus 2065 MA assessed as diameter of bacterial growth inhibition by Mueller-Hinton broth based assay; type: functional
# Trypanosoma cruzi [6] = assay: Antitrypanosomal activity against bloodstream form of Trypanosoma cruzi Y trypomastigotes infected in Swiss Webster mouse assessed as reduction in viable parasite in blood incubated for 24 hrs by Neubauer counting chamber based light microscopic analysis; type: functional, organism-based
# Trypanosoma cruzi [7] = assay: Antitrypanosomal activity against bloodstream form of Trypanosoma cruzi Y trypomastigotes infected in albino mouse assessed as reduction in viable parasite in blood by Neubauer counting chamber method; type: functional, organism-based
# OVCAR-8 = assay: Cytotoxicity against human OVCAR-8 cells assessed as reduction in cell viability by MTT assay; type: functional, cell-based
# SF-295 [8] = assay: Cytotoxicity against human SF-295 cells assessed as reduction in cell viability by MTT assay; type: functional, cell-based
# HCT-116 = assay: Cytotoxicity against human HCT-116 cells assessed as reduction in cell viability by MTT assay; type: functional, cell-based
# HL-60 [9] = assay: Cytotoxicity against human HL-60 cells assessed as reduction in cell viability by MTT assay; type: functional, cell-based
# NCI-H292 = assay: Cytotoxicity against human NCI-H292 cells assessed as reduction in cell viability incubated for 72 hrs by MTT assay; type: functional, cell-based; conditions: NCI-H292, 72 h
# HEp-2 = assay: Cytotoxicity against human HEp-2 cells assessed as reduction in cell viability incubated for 72 hrs by MTT assay; type: functional, cell-based; conditions: HEp-2, 72 h
compound,measurement,setting,value
CC1(C)OC2=C(C(=O)C(=O)c3ccccc32)[C@H](n2cc(-c3ccc(Br)cc3)nn2)[C@H]1Br,MIC,[1],< 6.25 mg/L
CC1(C)OC2=C(C(=O)C(=O)c3ccccc32)[C@H](n2cc(-c3ccc(F)cc3)nn2)[C@H]1Br,MIC,[1],< 6.25 mg/L
COc1ccc(-c2cn([C@H]3C4=C(OC(C)(C)[C@@H]3Br)c3ccccc3C(=O)C4=O)nn2)cc1,MIC,[1],< 6.25 mg/L
CC1(C)OC2=C(C(=O)C(=O)c3ccccc32)[C@H](n2cc(-c3ccccc3)nn2)[C@H]1Br,MIC,[1],< 6.25 mg/L
C=CCC1Cc2c(c3ccccc3c3nc4ccccc4nc23)OC1(C)C (stereo not given),MIC,[1],0.78 mg/L
CC1(C)CCc2c(c3ccccc3c3nc(-c4ccc5c(c4)OCO5)oc23)O1,IC50,Trypanosoma cruzi [2],270 µM
CC1(C)OC2=C(C(=O)C(=O)c3ccccc32)C1n1cc(-c2ccc(F)cc2)nn1 (stereo not given),IC50,HL-60 [3],1.33 µM
same,IC50,Jurkat,1.33 µM
same,IC50,MOLT-4,1.33 µM
same,IC50,K562,1.33 µM
CC1(C)OC2=C(C(=O)C(=O)c3ccccc32)C1n1cc(-c2ccc([N+](=O)[O-])cc2)nn1 (stereo not given),IC50,HL-60 [3],0.74 µM
same,IC50,Jurkat,0.74 µM
same,IC50,MOLT-4,0.74 µM
same,IC50,K562,0.74 µM
COc1ccc(-c2cn(C3C4=C(OC3(C)C)c3ccccc3C(=O)C4=O)nn2)cc1 (stereo not given),IC50,HL-60 [3],0.94 µM
same,IC50,Jurkat,0.94 µM
same,IC50,MOLT-4,0.94 µM
same,IC50,K562,0.94 µM
CC1CC2=C(O1)c1ccccc1C(=O)C2=O (stereo not given),IC50,HL-60 [3],1.11 µM
CC1(C)CCc2c(c3ccccc3c3nc(-c4ccccc4)[nH]c23)O1,IC50,Trypanosoma cruzi [4],37.5 µM
CC1(C)CCc2c(c3ccccc3c3nc(-c4cccc(Br)c4)[nH]c23)O1,MIC,[1],1.56 mg/L
CC1(C)CCc2c(c3ccccc3c3nc(-c4ccc(Br)cc4)[nH]c23)O1,IC50,Trypanosoma cruzi [4],37.5 µM
CC1(C)CCc2c(c3ccccc3c3nc(-c4cccc(F)c4)[nH]c23)O1,MIC,[1],1.56 mg/L
CC1(C)CCc2c(c3ccccc3c3nc(-c4ccc(F)cc4)[nH]c23)O1,IC50,Trypanosoma cruzi [4],37.5 µM
CC1(C)CCc2c(c3ccccc3c3nc(-c4ccc([N+](=O)[O-])cc4)[nH]c23)O1,MIC,[1],> 100 mg/L
COc1ccccc1-c1nc2c([nH]1)c1c(c3ccccc32)OC(C)(C)CC1,MIC,[1],1.56 mg/L
Cc1ccccc1-c1nc2c([nH]1)c1c(c3ccccc32)OC(C)(C)CC1,IC50,Trypanosoma cruzi [4],37.5 µM
same,MIC,[1],1.56 mg/L
CC1(C)CCc2c(c3ccccc3c3nc(-c4cccc(C(F)(F)F)c4)[nH]c23)O1,MIC,[1],1.56 mg/L
Cc1ccc(-c2nc3c([nH]2)c2c(c4ccccc43)OC(C)(C)CC2)cc1,MIC,[1],3.12 mg/L
O=C1C(=O)c2ccccc2C2=C1CCCO2,IC50,HepG2,0.92 µM
CC1(C)OC2=C(C(=O)C(=O)c3ccccc32)C1n1cc(C2=CCCCC2)nn1 (stereo not given),IC50,HL-60 [3],< 5 µM
same,IC50,PC-3,< 1.25 µM
same,IC50,SF-295 [5],< 1.25 µM
same,IC50,MDA-MB-435,< 1.25 µM
same,IC50,HCT-8,< 1.25 µM
same,IC50,B16,< 1.25 µM
CC1(C)OC2=C(C(=O)C(=O)c3ccccc32)C1Sc1c(F)c(F)c(F)c(F)c1F (stereo not given),zone diameter,Staphylococcus aureus,10 mm
CC1(C)OC2=C(CC1[Se]c1ccccc1)C(=O)C(=O)c1ccccc12 (stereo not given),IC50,Trypanosoma cruzi [6],103 µM
CC1(C)OC2=C(CC1[Se]c1cccc(C(F)(F)F)c1)C(=O)C(=O)c1ccccc12 (stereo not given),IC50,Trypanosoma cruzi [6],54.9 µM
same,IC50,Trypanosoma cruzi [7],54.9 µM
CCCC[Se]C1CC2=C(OC1(C)C)c1ccccc1C(=O)C2=O (stereo not given),IC50,Trypanosoma cruzi [6],109 µM
COc1ccc(/C=C/C(=O)c2ccc(NC3C4=C(OC3(C)C)c3ccccc3C(=O)C4=O)cc2)cc1 (stereo not given),IC50,Trypanosoma cruzi [7],230 µM
COc1ccc(-c2nc3c([nH]2)c2c(c4ccccc43)OC(C)(C)CC2)cc1,IC50,Trypanosoma cruzi [2],259 µM
CC1(C)O[C@@H]2O[C@@H](COC3C4=C(OC3(C)C)c3ccccc3C(=O)C4=O)[C@H]3OC(C)(C)O[C@H]3[C@@H]2O1 (stereo not given in full),IC50,OVCAR-8,0.16 µM
same,IC50,SF-295 [8],0.16 µM
same,IC50,HCT-116,0.16 µM
same,IC50,HL-60 [9],0.16 µM
CC(=O)OCC1C2=C(OC1(C)C)c1ccccc1C(=O)C2=O (stereo not given),IC50,NCI-H292,0.6 µM
same,IC50,HEp-2,0.6 µM
